Results taken from patent publication US12415794B2 (Edgewise Therapeutics, Inc., priority 2018, dated 2025).

How the values were obtained:
[1] = molecular target: T1, cardiac myofibrils (myosin ATPase); test: Cardiac Myofibril ATPase Assay (counter screen); assay type: biochemical; conditions: myofibrils 1.0 mg/mL, KCl omitted
T1 construct: frozen myofibril pellets obtained from cardiac tissue; from tissue
How it was run: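 Frozen cardiac myofibrils at 1.0 mg/mL final, KCl omitted, in a PK-LDH coupled ATPase assay; ADP production tracked as NADH loss by absorbance at 340 nm. Inhibition taken as reduced rate relative to vehicle controls, with IC50 derived.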

[2] = molecular target: skeletal myofibrils (myosin ATPase); test: Skeletal Myofibril ATPase Assay; assay type: biochemical
How it was run: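 Skeletal myofibril ATPase measured by PK-LDH coupled NADH depletion, absorbance 340 nm read every 1.5-2 min over 45 min. Max−min rate normalized to 1% DMSO vehicle as 100%; IC50 from four-parameter logistic fit with bottom ≥0. Cardiac myofibrils used as counter-screen.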

T1 sequence (P12883 whole entry): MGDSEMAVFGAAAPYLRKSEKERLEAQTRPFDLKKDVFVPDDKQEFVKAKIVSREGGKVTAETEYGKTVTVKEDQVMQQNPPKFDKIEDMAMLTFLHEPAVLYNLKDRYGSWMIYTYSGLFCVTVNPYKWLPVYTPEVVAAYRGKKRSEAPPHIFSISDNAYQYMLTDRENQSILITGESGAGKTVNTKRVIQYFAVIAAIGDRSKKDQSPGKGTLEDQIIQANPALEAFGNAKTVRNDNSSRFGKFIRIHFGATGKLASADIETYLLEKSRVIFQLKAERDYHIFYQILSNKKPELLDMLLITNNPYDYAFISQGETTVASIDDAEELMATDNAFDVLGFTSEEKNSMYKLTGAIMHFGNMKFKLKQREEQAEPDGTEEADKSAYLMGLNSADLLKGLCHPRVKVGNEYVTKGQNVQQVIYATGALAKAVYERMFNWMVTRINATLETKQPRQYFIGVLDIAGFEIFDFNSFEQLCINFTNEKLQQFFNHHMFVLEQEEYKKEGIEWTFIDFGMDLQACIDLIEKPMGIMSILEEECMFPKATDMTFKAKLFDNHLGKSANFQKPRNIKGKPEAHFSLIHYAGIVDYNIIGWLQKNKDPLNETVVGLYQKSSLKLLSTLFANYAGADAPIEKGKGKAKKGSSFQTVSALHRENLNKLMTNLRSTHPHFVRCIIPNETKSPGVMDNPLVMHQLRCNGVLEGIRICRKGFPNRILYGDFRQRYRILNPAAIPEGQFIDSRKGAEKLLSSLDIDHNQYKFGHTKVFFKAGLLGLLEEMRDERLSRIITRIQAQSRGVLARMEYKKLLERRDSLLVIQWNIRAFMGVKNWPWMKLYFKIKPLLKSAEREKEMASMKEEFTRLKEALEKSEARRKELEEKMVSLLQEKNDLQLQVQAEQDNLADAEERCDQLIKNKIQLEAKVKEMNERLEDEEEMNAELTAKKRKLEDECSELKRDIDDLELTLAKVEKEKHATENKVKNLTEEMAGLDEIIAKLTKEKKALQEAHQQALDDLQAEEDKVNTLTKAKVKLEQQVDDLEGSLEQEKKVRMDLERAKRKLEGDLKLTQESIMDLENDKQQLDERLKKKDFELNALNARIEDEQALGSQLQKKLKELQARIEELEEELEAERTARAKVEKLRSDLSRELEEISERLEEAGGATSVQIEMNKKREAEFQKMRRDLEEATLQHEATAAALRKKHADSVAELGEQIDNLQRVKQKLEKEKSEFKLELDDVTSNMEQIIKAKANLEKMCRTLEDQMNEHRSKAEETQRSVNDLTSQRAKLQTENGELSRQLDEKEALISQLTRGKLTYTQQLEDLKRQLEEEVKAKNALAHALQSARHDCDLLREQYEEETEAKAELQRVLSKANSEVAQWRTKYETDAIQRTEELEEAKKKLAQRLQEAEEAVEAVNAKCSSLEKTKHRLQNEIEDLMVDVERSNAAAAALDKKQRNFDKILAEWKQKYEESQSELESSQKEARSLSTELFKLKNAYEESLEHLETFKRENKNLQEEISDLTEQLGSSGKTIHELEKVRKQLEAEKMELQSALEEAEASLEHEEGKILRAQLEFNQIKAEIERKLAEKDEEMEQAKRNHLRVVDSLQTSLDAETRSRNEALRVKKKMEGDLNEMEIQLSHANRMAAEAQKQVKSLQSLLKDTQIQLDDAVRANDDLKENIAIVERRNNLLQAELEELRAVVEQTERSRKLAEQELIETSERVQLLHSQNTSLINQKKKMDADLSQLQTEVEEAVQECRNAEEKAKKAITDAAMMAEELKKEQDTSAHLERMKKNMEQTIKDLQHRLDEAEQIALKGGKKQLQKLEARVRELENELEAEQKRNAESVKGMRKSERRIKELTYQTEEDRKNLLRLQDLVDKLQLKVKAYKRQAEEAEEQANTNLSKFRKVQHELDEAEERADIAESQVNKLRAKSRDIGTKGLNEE
T1 sequence (P08590 whole entry partner): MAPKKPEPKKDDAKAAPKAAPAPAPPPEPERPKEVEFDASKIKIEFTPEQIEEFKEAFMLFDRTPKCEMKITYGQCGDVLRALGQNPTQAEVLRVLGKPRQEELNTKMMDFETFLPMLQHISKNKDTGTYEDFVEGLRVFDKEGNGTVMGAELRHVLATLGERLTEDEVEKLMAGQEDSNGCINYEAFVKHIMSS
T1 sequence (P10916 whole entry partner): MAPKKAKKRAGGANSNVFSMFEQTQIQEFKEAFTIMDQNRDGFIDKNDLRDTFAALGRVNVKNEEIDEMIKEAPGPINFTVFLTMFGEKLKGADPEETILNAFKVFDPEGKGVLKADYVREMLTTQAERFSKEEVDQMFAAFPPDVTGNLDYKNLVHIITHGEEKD

IC50 ([1]; Table 5C)	IC50 ([2]; Table 4C)	IC50 ([1]; Table 5A)	IC50 ([2]; Table 4A)	other results	Compound
> 100 µM	10 to 100 µM				COc1ccc(-c2ccc(=O)n(CC(=O)NC(C)c3ccccc3Cl)n2)cc1 (stereo not shown) [IIIa-25, N-(1-(2-chlorophenyl)ethyl)-2-(3-(4-methoxyphenyl)-6-oxopyridazin-1(6H)-yl)acetamide]
> 100 µM	10 to 100 µM				COc1ccc(CNC(=O)Cn2nc(-c3ccc(OC)cc3)ccc2=O)cc1 [IIIb-34, N-(4-methoxybenzyl)-2-(3-(4-methoxyphenyl)-6-oxopyridazin-1(6H)-yl)acetamide]
				IC50 ([1]; Table 5B): > 100 µM; IC50 ([2]; Table 4B): 10 to 100 µM	O=C(Cn1nc(-c2ccc(OC(F)F)cc2)ccc1=O)NCC(F)(F)F [II-11, 2-(3-(4-(difluoromethoxy)phenyl)-6-oxopyridazin-1(6H)-yl)-N-(2,2,2-trifluoroethyl) acetamide]
		> 100 µM	10 to 100 µM		CCNC(=O)Cn1nc(-c2ccc(NC34CC(CO)(C3)C4)nc2)ccc1=O [Compound I-58, N-ethyl-2-(3-(6-((3-(hydroxymethyl)bicyclo[1.1.1]pentan-1-yl)amino)pyridin-3-yl)-6-oxopyridazin-1(6H)-yl)acetamide]
		> 100 µM	10 to 100 µM		CC(C)(C#N)NC(=O)Cn1nc(-c2ccc(OC(F)F)nc2)ccc1=O [Compound I-35, N-(2-cyanopropan-2-yl)-2-(3-(6-(difluoromethoxy)pyridin-3-yl)-6-oxopyridazin-1(6H)-yl)acetamide]
> 100 µM	> 100 µM				O=C(Cn1nc(-c2ccccc2)ccc1=O)NC1CC1 [IIIc-65, N-cyclopropyl-2-(6-oxo-3-phenylpyridazin-1(6H)-yl)acetamide]
> 100 µM	10 to 100 µM				COc1ccc(-c2ccc(=O)n(CC(=O)NCc3ccc(Cl)cc3)n2)cc1 [IIIb-31, N-(4-chlorobenzyl)-2-(3-(4-methoxyphenyl)-6-oxopyridazin-1(6H)-yl)acetamide]
> 100 µM	10 to 100 µM				Cc1ccc(-c2ccc(=O)n(CC(=O)NC3CCCCCC3)n2)cc1 [IIIc-4, N-cycloheptyl-2-(6-oxo-3-(p-tolyl)pyridazin-1(6H)-yl)acetamide]
		> 100 µM	10 to 100 µM		CCNC(=O)Cn1nc(-c2ccc(CC(F)(F)F)nc2)ccc1=O [Compound I-37, N-ethyl-2-(6-oxo-3-(6-(2,2,2-trifluoroethyl)pyridin-3-yl)pyridazin-1(6H)-yl)acetamide]
> 100 µM	< 10 µM				CCc1ccc(-c2ccc(=O)n(CC(=O)NCc3ccccc3Cl)n2)cc1 [IIIa-18, N-(2-chlorobenzyl)-2-(3-(4-ethylphenyl)-6-oxopyridazin-1(6H)-yl)acetamide]
> 100 µM	> 100 µM				COc1ccc(-c2ccc(=O)n(CC(=O)NCc3cccc(F)c3)n2)c(F)c1 [IIIb-55, 2-(3-(2-fluoro-4-methoxyphenyl)-6-oxopyridazin-1(6H)-yl)-N-(3-fluorobenzyl)acetamide]
> 100 µM	< 10 µM				CCOc1ccc(-c2ccc(=O)n(CC(=O)NC(C)C)n2)cc1 [IIIa-6, 2-(3-(4-ethoxyphenyl)-6-oxopyridazin-1(6H)-yl)-N-isopropylacetamide]
		> 100 µM	> 100 µM		O=C(Cn1nc(-c2ccc(OC(F)F)nc2)ccc1=O)NC1CC(F)(F)C1 [Compound I-33]
		> 100 µM	10 to 100 µM		CCNC(=O)Cn1nc(-c2ccc(OCC3(F)COC3)nc2)ccc1=O [Compound I-23, N-ethyl-2-(3-(6-((3-fluorooxetan-3-yl)methoxy)pyridin-3-yl)-6-oxopyridazin-1(6H)-yl)acetamide]
> 100 µM	< 10 µM				COc1ccc(-c2ccc(=O)n(CC(=O)NCc3cc(Cl)ccc3Cl)n2)cc1
		> 100 µM	10 to 100 µM		CCNC(=O)Cn1nc(-c2ccc(OCCC(F)(F)F)nc2)ccc1=O [Compound I-10, N-ethyl-2-(6-oxo-3-(6-(3,3,3-trifluoropropoxy)pyridin-3-yl)pyridazin-1(6H)-yl)acetamide]
> 100 µM	> 100 µM				COc1ccc(-c2ccc(=O)n(CC(=O)NCc3ccccc3F)n2)cc1 [IIIb-38, N-(2-fluorobenzyl)-2-(3-(4-methoxyphenyl)-6-oxopyridazin-1(6H)-yl)acetamide]
				IC50 ([1]; Table 5B): > 100 µM; IC50 ([2]; Table 4B): < 10 µM	CCNC(=O)Cn1nc(-c2ccc(OCC(F)(F)F)cc2)ccc1=O [II-6, N-ethyl-2-(6-oxo-3-(4-(2,2,2-trifluoroethoxy)phenyl)pyridazin-1(6H)-yl)acetamide]
				IC50 ([1]; Table 5B): > 100 µM; IC50 ([2]; Table 4B): < 10 µM	O=C(Cn1nc(-c2ccc(OC(F)F)cc2)ccc1=O)NCc1ccccc1Cl [II-3, N-(2-chlorobenzyl)-2-(3-(4-(difluoromethoxy)phenyl)-6-oxopyridazin-1(6H)-yl)acetamide]
> 100 µM	< 10 µM				COc1ccccc1NC(=O)Cn1nc(-c2ccc(Cl)cc2)ccc1=O [IIIc-23, 2-(3-(4-chlorophenyl)-6-oxopyridazin-1(6H)-yl)-N-(2-methoxyphenyl)acetamide]
				IC50 ([1]; Table 5B): > 100 µM; IC50 ([2]; Table 4B): < 10 µM	O=C(Cn1nc(-c2ccc(OC(F)F)cc2)ccc1=O)NC1CCC1 [II-9, N-cyclobutyl-2-(3-(4-(difluoromethoxy)phenyl)-6-oxopyridazin-1(6H)-yl)acetamide]
		> 100 µM	< 10 µM		CCNC(=O)Cn1nc(-c2ccc(SC)nc2)ccc1=O [Compound I-63, N-ethyl-2-(3-(6-(methylthio)pyridin-3-yl)-6-oxopyridazin-1(6H)-yl)acetamide]
		> 100 µM	> 100 µM		C[C@H](NC(=O)Cn1nc(-c2ccc(OC(F)F)nc2)ccc1=O)c1ccnn1C [Compound I-29, (S)-2-(3-(6-(difluoromethoxy)pyridin-3-yl)-6-oxopyridazin-1(6H)-yl)-N-(1-(1-methyl-1H-pyrazol-5-yl)ethyl)acetamide]
				IC50 ([1]; Table 5B): > 100 µM; IC50 ([2]; Table 4B): 10 to 100 µM	CC(=O)Nc1ccc(-c2ccc(=O)n(CC(=O)NC(C)C)n2)cc1 [II-14, 2-(3-(4-acetamidophenyl)-6-oxopyridazin-1(6H)-yl)-N-isopropylacetamide]
> 100 µM	> 100 µM				COc1ccc(-c2ccc(=O)n(CC(=O)Nc3cccc(C)n3)n2)cc1 [IIIb-59, 2-(3-(4-methoxyphenyl)-6-oxopyridazin-1(6H)-yl)-N-(6-methylpyridin-2-yl)acetamide]
10 to 100 µM	< 10 µM				Cn1ccc2c(NC(=O)Cn3nc(-c4ccc(Cl)cc4)ccc3=O)cccc21 [IIIc-20, 2-(3-(4-chlorophenyl)-6-oxopyridazin-1(6H)-yl)-N-(1-methyl-1H-indol-4-yl)acetamide]
> 100 µM	> 100 µM				COc1ccc(-c2ccc(=O)n(CC(=O)NCc3ccccc3Cl)n2)cc1OC [IIIb-40, N-(2-chlorobenzyl)-2-(3-(3,4-dimethoxyphenyl)-6-oxopyridazin-1(6H)-yl)acetamide]
		> 100 µM	10 to 100 µM		CCNC(=O)Cn1nc(-c2ccc(Oc3ccc(F)cc3)nc2)ccc1=O [Compound I-21, N-ethyl-2-(3-(6-(4-fluorophenoxy)pyridin-3-yl)-6-oxopyridazin-1(6H)-yl)acetamide]
> 100 µM	10 to 100 µM				COc1ccc(-c2ccc(=O)n(CC(=O)NCc3cccc(F)c3)n2)cc1 [IIIb-32, N-(3-fluorobenzyl)-2-(3-(4-methoxyphenyl)-6-oxopyridazin-1(6H)-yl)acetamide]
